# Test results published in patent US20250213560A1, “NITROGEN-CONTAINING HETEROCYCLIC COMPOUNDS HAVING PHENYL GROUP AND USES THEREOF” (BNH RESEARCH CO., LTD., priority 2022, published 2025).
# Key:
# GluN2B = GluN2B expression in SH-SY5Y cells; type: cell-based, human; settings: 1 μM, application for 6 and 24 hours
# Method: Human undifferentiated neuroblastoma cell line SH-SY5Y and human embryonic kidney cell line (HEK)-293T were purchased from Korean Cell Line Bank (Korea) and Takara (Japan), respectively. Cells were grown in HyClone Minimal Essential Medium (MEM) and Dulbecco's Modified Eagle Medium (DMEM), respectively, supplemented with 10% (v/v) fetal bovine serum (FBS), penicillin (100 U/mL), and streptomycin ([…]). Cells were maintained in a humidified atmosphere of 95% air and 5% CO2 at 37° C. Cells were passaged 10 times at maximum. Cells were dissociated using 0.05% trypsin-EDTA solution and the cells were seeded in new culture dishes for maintenance.
# RT-PCR was used to measure the amount of BDNF and GluN2B in response to compounds of the present disclosure. 293T cells were dissociated using 0.05% Trypsin-EDTA solution and seeded in 24 well or 6 well dishes for RNA work. After incubation at 37° C. in a humidified atmosphere with 5% CO2 for 24 hours, the culture medium was replaced by a medium containing a series of concentrations of tested compounds diluted with the DMEM without FBS. Time course experiments were performed. The same volume of DMSO was used for negative control.
# Similarly, BnH12003 (1 μM) augmented BDNF and GluN2B expression by application for 6 and 24 hours in SH-SY5Y cells (FIGS. 11A and 11B).
# [1] = system: mouse barrel cortex (layer 4); assay: Ex vivo synaptic plasticity (TC EPSC potency, GABA/AMPA ratio) in barrel cortex after in vivo administration; settings: C57BL/6J mice
# From the text: Eight weeks old male C57BL/6J mice were anesthetized with isoflurane during surgery. The mice were then be placed in a stereotaxic frame (RWD Life Science, China). The parietal and the frontal bones were exposed by a sagittal incision of the scalp at the midline from the level of the eyes to the occipital protuberance. A small burr hole was drilled after exposing the skull. The injection cannula was placed at the following coordinates: (Mouse: Bregma-3.30, lateral-1.50, and ventral 0.7 mm). Sterile saline solution (+/−a compound of the present disclosure) was perfused at a constant flow rate of […] through the injection cannula using a mini-Os pump (DURECT Corporation ALZET Osmotic Pumps, CA). Implantation was done in layer 4 of the barrel cortex ipsilateral. To estimate extent of the diffusion of the injected compound in layer 4 barrel cortex during pump injection, methylene blue was first injected to stain the diffusion area. On average methylene blue diffused to 2000.0 μm away from the injection site (the total area of the barrel cortex region is about 1500 μm). Based on this analysis, the present inventors recorded from barrel cortex area.
# The compound was diluted to 25 mg/kg using DMSO: PEG400: Saline (5:55:40). The compound was administered intraperitoneal at 10:00 a.m. daily (i.p. volume was 200 ul) for about 11 to 12 days. Control group was also administered by i.p. injection in the same manner using the vehicle (DMSO: PEG400: Saline (5:55:40)). 5 mice were used for the compound administration group and the control group, respectively.
# For TC or hippocampus slice preparation, 9 to 10 weeks-old male C57BL/6J mice were anesthetized with isoflurane. Then, the brain was rapidly cooled via transcardial perfusion with ice-cold sucrose-artificial cerebrospinal fluid (aCSF). The brain was removed and placed in ice-cold sucrose aCSF. Paracoronal slices were prepared at an angle of 50° relative to the midline on a ramp at an angle of 10°. Then, slices were incubated in aCSF at 35° C. for 30 minutes to recover. […]
# Whole cell recordings were made using a multiclamp 700A (Molecular devices, Sunnyvale, CA)digitized at 10 kHz and filtered at 2 kHz. Input resistance and series resistance were monitored continuously during recordings, as previously described (see Isaac, Crair, Nicoll, & Malenka, 1997, Silent synapses during development of thalamocortical inputs, DOI: 10.1016/s0896-6273 (00) 80267-6).
# For the minimal stimulation protocol (Potency), VB thalamic stimulation intensity was adjusted to find the lowest intensity that elicited a mixture of synaptic responses and failures. Failure rate was calculated as the number of failures/total number of trials. […]
# [2] = Os pump, 3 μM continuously for 2 weeks, barrel cortex layer 4
# [3] = intraperitoneal 25 mg/kg once a day for about 11 or 12 days
smiles,measurement,setting,value
"C[C@H]1CC[C@@H](C(=O)O)CN1C(=O)Cc1ccc(-c2cncnc2)cc1 [BnH12003, (3R,6S)-6-methyl-1-(2-(4-(pyrimidin-5-yl)phenyl)acetyl) piperidine-3-carboxylic acid]",GluN2B expression,GluN2B,augmented
same,GABA/AMPA ratio (balance of excitation/inhibition),[1]; [2],balance of excitation/inhibition was maintained
same,excitatory TC synaptic potency (TC potency),[1]; [2],significantly increased
same,GABA/AMPA ratio (balance of excitation/inhibition),[1]; [3],maintaining the balance of excitation/inhibition
same,TC synaptic potency in the sensory cortex,[1]; [3],increase TC synaptic potency
